{
  "source": "patent US6872713B1",
  "about": "“Antiprotozoal saponins” (Janssen Pharmaceutica N.V., priority 1999, dated 2005)",
  "key": {"L. donovani [1]": {"tested_on": "L. donovani", "assay": "Lowest active dose regimen in Balb-C mice, L. donovani", "type": "in vivo", "conditions": "no regimen given", "description": "(§1) Methods for in vivo maintenance of Leishmania organisms and animals models are well documented in the international literature. Balb-C mice and golden hamsters are the preferred laboratory animal species for primary isolation, maintenance and use in artificial infection models. Testing protocols are flexible and may be adapted according to the specific objectives and characteristics of the test compounds. Briefly, the following in vivo methodologies have been used:\nFor visceral Leishmania species: Balb-C mice or young hamsters were intravenously infected with about 10^6 to 10^7 amastigotes derived from the target organs (generally spleen) of an infected donor animal or from an in vitro culture of parasite forms. The animals were treated with the test compound at different dose levels (dose range: 0.1 to 80 mg/kg in 100% DMSO or any other acceptable vehicle), using different routes of administration and treatment schedules. Initiation of treatment was either at different times after infection (curatively), concomitant with infection (prophylactically) or before infection (residual activity). In the prophylactic study design, the first administration of the test drug is given immediately before or together with the artificial infection with the Leishmania species. In the curative study design, the first administration of the test drug is given several weeks after the artificial infection with the Leishmania species (early curative=when the first clinical signs appear; late curative=when the clinical symptoms are well established or become chronic). Drug activity was evaluated by determination of the total parasite burdens in the liver or any other relevant target tissue/organ, compared to the tissue/organ burdens in untreated control animals. The mean number of amastigotes is enumerated quantitatively or semi-quantitatively on stained impression smears or slides. The percentage reduction serves as an indication for antileishmanial activity and provides significant leads for clinically useful agents. […]"}, "L mexicana": {"tested_on": "L mexicana", "assay": "Lowest active dose regimen in Balb-C mice, L mexicana", "type": "in vivo", "conditions": "L mexicana prophylactic; no regimen given", "description": "as §1\n(§2) For cutaneous and mucocutaneous Leishmania species:Balb-C mice or young hamsters were infected intradermally or subcutaneously with about 10^6 to 10^7 amastigotes derived from the target organs (generally skin lesion) of an infected donor animal or from an in vitro culture of parasite forms. The animals were treated with the test compound at different dose levels (mg/kg in 100% DMSO or any other acceptable vehicle), using different routes of administration and treatment schedules. […] Drug activity was evaluated either by determination of the severity of the lesion in the relevant target tissue/organ (primary parameter) or of the parasite burdens in the relevant target tissue/organ (secondary parameter), compared to untreated control animals. The lesion size was assessed quantitatively using the method of J. El-On. and A. D. Hamburger [Trans. […]"}, "L. panamensis [2]": {"tested_on": "L. panamensis", "assay": "Lowest active dose regimen in Balb-C mice, L. panamensis", "type": "in vivo", "conditions": "L. panamensis prophylactic; no regimen given", "description": "as §1, §2"}, "L. major [3]": {"tested_on": "L. major", "assay": "In vitro antileishmanial activity in primary mouse macrophages, L. major", "type": "cell-based", "conditions": "Leishmania major, Macrophage, L. major (cutaneous)", "description": "(§3) Methods for the in vitro growth of Leishmania organisms and screening methodology are well documented in the international literature. Testing protocols are flexible and may be adapted according to the specific objectives and the characteristics of the test compounds. Briefly, the following in vitro methodology has been used: Primary peritoneal macrophages derived from laboratory rodents or macrophage cell lines were seeded in multiwell tissue culture vessels and allowed to attach for about 24 hours. Amastigotes of the Leishmania species (obtained from target tissues of an infected donor animal or from amastigote-infected tissue cultures) or promastigotes of the Leishmania species were added at an appropriate infection ratio together with varying serially diluted concentrations of the drug or test compound. […] Treatment of uninfected control cultures was also included in order to determine a selectivity index. Reference drug treated cultures were included as well so as to determine the relative potency of the test drug. Drug activity was determined in stained preparations as the percentage reduction of the total parasite load or the number of infected macrophages compared to the untreated control cultures."}, "L. mexicana [4]": {"tested_on": "L. mexicana", "assay": "In vitro antileishmanial activity in primary mouse macrophages, L. mexicana", "type": "cell-based", "conditions": "Leishmania mexicana, Macrophage, L. mexicana (cutaneous)", "description": "as §3"}, "L. infantum": {"tested_on": "L. infantum", "assay": "In vitro antileishmanial activity in macrophages, L. infantum", "type": "cell-based", "conditions": "Leishmania infantum, Macrophage; L. infantum (visceral), primary mouse macrophages", "description": "as §3"}, "L. major [5]": {"tested_on": "L. major", "assay": "In vivo skin lesion model, L. major (prophylactic and curative)", "design": "species or system mice and hamsters", "conditions": "L. major proph., 10 mg/kg", "description": "as §1\n(§4) For cutaneous and mucocutaneous Leishmania species:Balb-C mice or young hamsters were infected intradermally or subcutaneously with about 10^6 to 10^7 amastigotes derived from the target organs (generally skin lesion) of an infected donor animal or from an in vitro culture of parasite forms. The animals were treated with the test compound at different dose levels (mg/kg in 100% DMSO or any other acceptable vehicle), using different routes of administration and treatment schedules. Initiation of treatment was either before infection (prophylactically) or at different times after infection (curatively). In the prophylactic study design, the first administration of the test drug is given immediately before or together with the artificial infection with the Leishmania species. In the curative study design, the first administration of the test drug is given several weeks after the artificial infection with the Leishmania species (early curative=when the first dermal lesions appear; late curative=when dermal lesions are well established or become chronic). Drug activity was evaluated either by determination of the severity of the lesion in the relevant target tissue/organ (primary parameter) or of the parasite burdens in the relevant target tissue/organ (secondary parameter), compared to untreated control animals. The lesion size was assessed quantitatively using the method of J. El-On. and A. D. Hamburger [Trans. Roy. Soc. Trop. Med. Hyg., 81, 734-737 (1987)]. The percentage reduction serves as an indication for antileishmanial activity and provides significant leads for clinically useful agents. The lowest active dose (LAD) is defined as the lowest dose which prevents lesions to develop, stops further evolution of the lesions or induces a clinical cure of the lesions in the primary target organ or tissue."}, "L. donovani [6]": {"tested_on": "L. donovani", "assay": "In vitro antileishmanial activity in primary mouse macrophages, L. donovani", "type": "cell-based", "conditions": "Leishmania donovani, Macrophage, L. donovani (visceral)", "description": "as §3"}, "L. major [7]": {"tested_on": "L. major", "assay": "Lowest active dose regimen in Balb-C mice, L. major", "type": "in vivo", "conditions": "L. major prophylactic; no regimen given", "description": "as §1, §2"}, "L. panamensis [8]": {"tested_on": "L. panamensis", "assay": "In vivo skin lesion model, L. panamensis (prophylactic and curative)", "design": "species or system mice and hamsters", "conditions": "L. panamensis proph., 10 mg/kg", "description": "as §1, §4"}, "L. mexicana [9]": {"tested_on": "L. mexicana", "assay": "In vivo skin lesion model, L. mexicana (prophylactic and curative)", "design": "species or system mice and hamsters", "conditions": "L. mexicana proph., 10 mg/kg", "description": "as §1, §4"}},
  "data": [
    {"smiles": "C[C@@H]1[C@H](O)[C@@H](C)/C=C/C=C/C=C/C=C/C=C/C=C/C=C/[C@H](O[C@@H]2O[C@H](C)[C@@H](O)[C@H](N)[C@@H]2O)C[C@@H]2O[C@](O)(C[C@@H](O)C[C@@H](O)[C@H](O)CC[C@@H](O)C[C@@H](O)CC(=O)O[C@H]1C)C[C@H](O)[C@H]2C(=O)O", "note": "[Ampho-B, amphothericin-B]", "values": [
      {"measurement": "Lowest active dose (LAD) regimen", "setting": "L. donovani [1]; L. donovani curative early", "value": "not effective"},
      {"measurement": "Lowest active dose (LAD) regimen", "setting": "L. donovani [1]; L. donovani prophylactic", "value": "not effective"},
      {"measurement": "residual activity", "setting": "L. donovani [1]; L. donovani", "value": "not effective"},
      {"measurement": "Lowest active dose (LAD) regimen", "setting": "L mexicana", "value": "not effective"},
      {"measurement": "Lowest active dose (LAD) regimen", "setting": "L. panamensis [2]", "value": "not effective"},
      {"measurement": "EC50", "setting": "L. major [3]", "value": 0.2, "unit": "µg/mL"},
      {"measurement": "EC50", "setting": "L. mexicana [4]", "value": 0.1, "unit": "µg/mL"},
      {"measurement": "EC50", "setting": "L. infantum", "value": 0.1, "unit": "µg/mL"},
      {"measurement": "skin lesion size", "setting": "L. major [5]; week 0 post infection", "value": 0, "unit": "mm^2"},
      {"measurement": "skin lesion size", "setting": "L. major [5]; week 1 post infection", "value": 0, "unit": "mm^2"},
      {"measurement": "skin lesion size", "setting": "L. major [5]; week 2 post infection", "value": 1, "unit": "mm^2"},
      {"measurement": "skin lesion size", "setting": "L. major [5]; week 3 post infection", "value": 1, "unit": "mm^2"},
      {"measurement": "skin lesion size", "setting": "L. major [5]; week 4 post infection", "value": 12, "unit": "mm^2"},
      {"measurement": "skin lesion size", "setting": "L. major [5]; week 5 post infection", "value": 31, "unit": "mm^2"},
      {"measurement": "skin lesion size", "setting": "L. major [5]; week 6 post infection", "value": 41, "unit": "mm^2"},
      {"measurement": "skin lesion size", "setting": "L. major [5]; week 7 post infection", "value": 57, "unit": "mm^2"},
      {"measurement": "skin lesion size", "setting": "L. major [5]; week 8 post infection", "value": 95, "unit": "mm^2"},
      {"measurement": "EC50", "setting": "L. donovani [6]", "value": 0.1, "unit": "µg/mL"},
      {"measurement": "Lowest active dose (LAD) regimen", "setting": "L. major [7]", "value": "not effective"},
      {"measurement": "skin lesion size", "setting": "L. panamensis [8]; week 0 post infection", "value": 0, "unit": "mm^2"},
      {"measurement": "skin lesion size", "setting": "L. panamensis [8]; week 1 post infection", "value": 0, "unit": "mm^2"},
      {"measurement": "skin lesion size", "setting": "L. panamensis [8]; week 2 post infection", "value": 0, "unit": "mm^2"},
      {"measurement": "skin lesion size", "setting": "L. panamensis [8]; week 3 post infection", "value": 0, "unit": "mm^2"},
      {"measurement": "skin lesion size", "setting": "L. panamensis [8]; week 4 post infection", "value": 1, "unit": "mm^2"},
      {"measurement": "skin lesion size", "setting": "L. panamensis [8]; week 5 post infection", "value": 9, "unit": "mm^2"},
      {"measurement": "skin lesion size", "setting": "L. panamensis [8]; week 6 post infection", "value": 15, "unit": "mm^2"},
      {"measurement": "skin lesion size", "setting": "L. panamensis [8]; week 7 post infection", "value": 30, "unit": "mm^2"},
      {"measurement": "skin lesion size", "setting": "L. panamensis [8]; week 8 post infection", "value": 30, "unit": "mm^2"},
      {"measurement": "skin lesion size", "setting": "L. panamensis [8]; week 9 post infection", "value": 42, "unit": "mm^2"},
      {"measurement": "skin lesion size", "setting": "L. panamensis [8]; week 10 post infection", "value": 42, "unit": "mm^2"},
      {"measurement": "skin lesion size", "setting": "L. panamensis [8]; week 11 post infection", "value": 43, "unit": "mm^2"},
      {"measurement": "skin lesion size", "setting": "L. panamensis [8]; week 12 post infection", "value": 39, "unit": "mm^2"},
      {"measurement": "skin lesion size", "setting": "L. mexicana [9]; week 0 post infection", "value": 0, "unit": "mm^2"},
      {"measurement": "skin lesion size", "setting": "L. mexicana [9]; week 1 post infection", "value": 0, "unit": "mm^2"},
      {"measurement": "skin lesion size", "setting": "L. mexicana [9]; week 2 post infection", "value": 0, "unit": "mm^2"},
      {"measurement": "skin lesion size", "setting": "L. mexicana [9]; week 3 post infection", "value": 0, "unit": "mm^2"},
      {"measurement": "skin lesion size", "setting": "L. mexicana [9]; week 4 post infection", "value": 0, "unit": "mm^2"},
      {"measurement": "skin lesion size", "setting": "L. mexicana [9]; week 5 post infection", "value": 1, "unit": "mm^2"},
      {"measurement": "skin lesion size", "setting": "L. mexicana [9]; week 6 post infection", "value": 2, "unit": "mm^2"},
      {"measurement": "skin lesion size", "setting": "L. mexicana [9]; week 7 post infection", "value": 7, "unit": "mm^2"},
      {"measurement": "skin lesion size", "setting": "L. mexicana [9]; week 8 post infection", "value": 13, "unit": "mm^2"},
      {"measurement": "skin lesion size", "setting": "L. mexicana [9]; week 9 post infection", "value": 34, "unit": "mm^2"},
      {"measurement": "skin lesion size", "setting": "L. mexicana [9]; week 10 post infection", "value": 85, "unit": "mm^2"},
      {"measurement": "skin lesion size", "setting": "L. mexicana [9]; week 11 post infection", "value": 101, "unit": "mm^2"},
      {"measurement": "skin lesion size", "setting": "L. mexicana [9]; week 12 post infection", "value": 112, "unit": "mm^2"}
    ]},
    {"smiles": "CCC(C)n1ncn(-c2ccc(N3CCN(c4ccc(OCC5COC(Cn6cncn6)(c6ccc(Cl)cc6Cl)O5)cc4)CC3)cc2)c1=O", "note": "(centres unmarked) [itraconazole]", "values": [
      {"measurement": "EC50", "setting": "L. infantum", "value": "> 12.5", "unit": "µg/mL"},
      {"measurement": "EC50", "setting": "L. donovani [6]", "value": "> 12.5", "unit": "µg/mL"}
    ]}
  ]
}
